Experimental data reported in US6407288B1, “Naphthylsalicylanilides as antimicrobial and antiinflammatory agents” (The Research Foundation of State University of New York, priority 2000, dated 2002).
≈ marks a conversion by molar mass, not a printed value.

Experiments:
S. mutans = experiment: MIC microdilution, gram positive; format: cell-based, Streptococcus mutans; conditions: Table 1, Gram Positive; for MIC: Streptococcus mutans
Procedure: (§1) The MIC's for the compounds were determined by a modified microdilution tube dilution method described in “Methods for Dilution Antimicrobial Susceptibility Tests for Bacteria that Grow Aerobically” (National Committee for Clinical Laboratory Standards Approved Standards, 1997, NCCLS document M7-A4). In general the modifications were made because of the unique growth requirements for the fastidious oral organisms and for those bacteria that require anaerobic conditions. Reference is also made to “Methods for Antimicrobial Susceptibility of Anaerobic Bacteria” (National Committee for Clinical Laboratory Standards Approved Standards, 1997, NCCLS document M11-A4). Briefly, the methods were as follows. Cultures were grown for 18-24hrs (aerobic bacteria) or 48-72 hrs (anaerobic bacteria) in the appropriate medium. For aerobic bacteria full strength brain heart infusion medium (BHI, Difco) was used. For anaerobic bacteria, half strength BHI (18.5 g/L) was supplemented by adding yeast extract (10 g/L), hemin (0.29 mL of a stock solution containing 0.1 g/200 mL dH2O) and menadione (15 mL of a stock solution containing 0.15 mL in 30 mL 95% EtOH) was used. Initial cultures were diluted to approximately 1×10^8 CFU/mL for use as an inoculum. Each assay received 10 μL of the inoculum. The drugs were prepared from a stock solution contained in dimethyl sulfoxide (DMSO) and diluted into the culture medium. Final concentrations of the drugs ranged from 50 to 0.05 μg/assay. The tests were run in duplicate and were incubated appropriately with regard to oxygen requirements for 24 to 48 hrs as required. Anaerobic incubation was an atmosphere of 5% CO2, 10% H2, with the balance N2. The lowest concentration of an antimicrobial agent at which no visible growth is noted was referred to as the MIC.

S. sanguis = experiment: MIC microdilution, gram positive; format: cell-based, Streptococcus sanguis; conditions: Streptococcus; Table 1, Gram Positive
Procedure: as §1

P. ging 381 = experiment: MIC microdilution, gram negative; format: cell-based, Porphyromonas gingivalis; conditions: for MIC: Porphyromonas gingivalis, 381
Procedure: The MIC's for the compounds were determined by a modified microdilution tube dilution method described in “Methods for Dilution Antimicrobial Susceptibility Tests for Bacteria that Grow Aerobically” (National Committee for Clinical Laboratory Standards Approved Standards, 1997, NCCLS document M7-A4). In general the modifications were made because of the unique growth requirements for the fastidious oral organisms and for those bacteria that require anaerobic conditions. Reference is also made to “Methods for Antimicrobial Susceptibility of Anaerobic Bacteria” (National Committee for Clinical Laboratory Standards Approved Standards, 1997, NCCLS document M11-A4). Briefly, the methods were as follows. Cultures were grown for 18-24hrs (aerobic bacteria) or 48-72 hrs (anaerobic bacteria) in the appropriate medium. For aerobic bacteria full strength brain heart infusion medium (BHI, Difco) was used. For anaerobic bacteria, half strength BHI (18.5 g/L) was supplemented by adding yeast extract (10 g/L), hemin (0.29 mL of a stock solution containing 0.1 g/200 mL dH2O) and menadione (15 mL of a stock solution containing 0.15 mL in 30 mL 95% EtOH) was used. Initial cultures were diluted to approximately 1×10^8 CFU/mL for use as an inoculum. Each assay received 10 μL of the inoculum. The drugs were prepared from a stock solution contained in dimethyl sulfoxide (DMSO) and diluted into the culture medium. Final concentrations of the drugs ranged from 50 to 0.05 μg/assay. The tests were run in duplicate and were incubated appropriately with regard to oxygen requirements for 24 to 48 hrs as required. Anaerobic incubation was an atmosphere of 5% CO2, 10% H2, with the balance N2. The lowest concentration of an antimicrobial agent at which no visible growth is noted was referred to as the MIC. […] The method used was the same as described in Example 1.

A. viscosus = experiment: MIC microdilution, gram positive; format: cell-based, Actinomyces viscosus; conditions: Table 2, Gram Positive; for MIC: Actinomyces viscosus
Procedure: as §1

S. aureus = experiment: MIC microdilution, gram positive; format: cell-based, Staphlococcus aureus; conditions: Table 2, Gram Positive; for MIC: Staphylococcus aureus
Procedure: The MIC's for the compounds were determined by a modified microdilution tube dilution method described in “Methods for Dilution Antimicrobial Susceptibility Tests for Bacteria that Grow Aerobically” (National Committee for Clinical Laboratory Standards Approved Standards, 1997, NCCLS document M7-A4). In general the modifications were made because of the unique growth requirements for the fastidious oral organisms and for those bacteria that require anaerobic conditions. Reference is also made to “Methods for Antimicrobial Susceptibility of Anaerobic Bacteria” (National Committee for Clinical Laboratory Standards Approved Standards, 1997, NCCLS document M11-A4).
Briefly, the methods were as follows. Cultures were grown for 18-24hrs (aerobic bacteria) or 48-72 hrs (anaerobic bacteria) in the appropriate medium. For aerobic bacteria full strength brain heart infusion medium (BHI, Difco) was used. For anaerobic bacteria, half strength BHI (18.5 g/L) was supplemented by adding yeast extract (10 g/L), hemin (0.29 mL of a stock solution containing 0.1 g/200 mL dH2O) and menadione (15 mL of a stock solution containing 0.15 mL in 30 mL 95% EtOH) was used. Initial cultures were diluted to approximately 1×10^8 CFU/mL for use as an inoculum. Each assay received 10 μL of the inoculum. The drugs were prepared from a stock solution contained in dimethyl sulfoxide (DMSO) and diluted into the culture medium. Final concentrations of the drugs ranged from 50 to 0.05 μg/assay. The tests were run in duplicate and were incubated appropriately with regard to oxygen requirements for 24 to 48 hrs as required. Anaerobic incubation was an atmosphere of 5% CO2, 10% H2, with the balance N2. The lowest concentration of an antimicrobial agent at which no visible growth is noted was referred to as the MIC.
This embodiment describes the sensitivity of various staphylococcus strains to the compounds of the present invention. The staphylococcus species R is a strain 00-045-1209 from the Children's Hospital in Buffalo. It was isolated from the peritoneal cavity (fluid culture) of an individual. It was coagulase negative. The sensitivity of this strain was tested agaisnt several known antibiotics.

P. acnes 11828 = experiment: MIC microdilution, gram positive; format: cell-based, Propionibacterium acnes; conditions: Cutibacterium acnes, 11828; Table 1, Gram Positive
Procedure: as §1

P. acnes 6922 = experiment: MIC microdilution, gram positive; format: cell-based, Propionibacterium acnes; conditions: Table 1, Gram Positive; for MIC: Cutibacterium acnes, 6922
Procedure: as §1

S.salivarius = experiment: MIC microdilution, gram positive; format: cell-based, Streptococcus salivarius; conditions: Streptococcus salivarius; Table 1, Gram Positive
Procedure: as §1

[1] = Table 3 printed a second time, Gram Negative

SMILES | MIC (S. mutans) [µg/mL] | MIC (S. sanguis) [µg/mL] | MIC (P. ging 381; Table 3, Gram Negative) [µg/mL] | MIC P. ging 381 (P. ging 381; [1]) | MIC (A. viscosus) [µg/mL] | MIC (S. aureus) [µg/mL] | MIC (P. acnes 11828) [µg/mL] | MIC (P. acnes 6922) [µg/mL] | MIC (S.salivarius) [µg/mL] | MIC S. mutans (S. mutans) | MIC P. ging 381 (P. ging 381; Table 3, Gram Negative) | MIC A. viscosus (A. viscosus) | MIC S. aureus (S. aureus) | MIC P. acnes 6922 (P. acnes 6922)
O=C(Nc1ccccc1)c1cc(C(=O)c2cccc3ccccc23)ccc1O [NA1, 2-Hydroxy-5-(naphthalene-1-carbonyl)-N-phenyl-benzamide] | 50 (≈ 136 µM) | > 50 | 1.6 (≈ 4.35 µM) | 1.6 micrograms/ml | 3.1 (≈ 8.44 µM) | 50 (≈ 136 µM) | > 50 | 25 (≈ 68 µM) | > 50 |  |  |  |  | 
COc1cc(NC(=O)c2cc(C(=O)c3cccc4ccccc34)ccc2O)cc(OC)c1 [NA1-2mOMe] |  |  |  | NE (NE indicates that the drug was not effective at a concentration >50 micrograms/ml) |  |  |  |  |  | NE (NE indicates that the drug was not effective at a concentration >50 micrograms/ml) | NE (NE indicates that the drug was not effective at a concentration >50 micrograms/ml) | NE (NE indicates that the drug was not effective at a concentration >50 micrograms/ml) | NE (NE indicates that the drug was not effective at a concentration >50 micrograms/ml) | NE (NE indicates that the drug was not effective at a concentration >50 micrograms/ml)
N#Cc1ccc(NC(=O)c2cc(C(=O)c3cccc4ccccc34)ccc2O)c2ccccc12 [NA1NpC] |  |  |  | 0.2 micrograms/ml |  |  |  |  |  | NE (NE indicates that the drug was not effective at a concentration >50 micrograms/ml) | 0.2 micrograms/ml | 0.8 micrograms/ml | NE (NE indicates that the drug was not effective at a concentration >50 micrograms/ml) | 0.4 micrograms/ml
O=C(Nc1cccc(C(F)(F)F)c1)c1cc(C(=O)c2c(O)ccc3ccccc23)ccc1O [NA1OHmF] | 6.3 (≈ 14 µM) |  | 0.8 (≈ 1.77 µM) | 0.8 micrograms/ml | 0.8 (≈ 1.77 µM) | > 50 |  | 3.1 (≈ 6.87 µM) |  |  |  |  |  | 
O=C(Nc1cccc(COc2ccccc2)c1)c1cc(C(=O)c2cccc3ccccc23)ccc1O [NA1_3BnOP] | > 50 |  | 3.1 (≈ 6.55 µM) | 3.1 micrograms/ml | 6.3 (≈ 13.3 µM) | > 50 |  | > 50 |  |  |  |  |  | 
O=C(Nc1cccc(Oc2ccccc2)c1)c1cc(C(=O)c2cccc3ccccc23)ccc1O [NA1mOPh] |  |  |  | NE (NE indicates that the drug was not effective at a concentration >50 micrograms/ml) |  |  |  |  |  | NE (NE indicates that the drug was not effective at a concentration >50 micrograms/ml) | NE (NE indicates that the drug was not effective at a concentration >50 micrograms/ml) | NE (NE indicates that the drug was not effective at a concentration >50 micrograms/ml) | NE (NE indicates that the drug was not effective at a concentration >50 micrograms/ml) | NE (NE indicates that the drug was not effective at a concentration >50 micrograms/ml)
O=C(c1ccccc1)c1ccc(NC(=O)c2cc(C(=O)c3cccc4ccccc34)ccc2O)cc1 [NA1pBz] |  |  |  | NE (NE indicates that the drug was not effective at a concentration >50 micrograms/ml) |  |  |  |  |  | NE (NE indicates that the drug was not effective at a concentration >50 micrograms/ml) | NE (NE indicates that the drug was not effective at a concentration >50 micrograms/ml) | NE (NE indicates that the drug was not effective at a concentration >50 micrograms/ml) | NE (NE indicates that the drug was not effective at a concentration >50 micrograms/ml) | NE (NE indicates that the drug was not effective at a concentration >50 micrograms/ml)
O=C(Nc1cc(C(F)(F)F)cc(C(F)(F)F)c1)c1cc(C(=O)c2cccc3ccccc23)ccc1O [NAmF2] | 1.6 (≈ 3.18 µM) |  | 0.2 (≈ 0.397 µM) | 0.2 micrograms/ml | 0.8 (≈ 1.59 µM) | > 50 |  | 0.4 (≈ 0.795 µM) |  |  |  |  |  | 
